Data set [1] addresses T1, NPC1-like intracellular cholesterol transporter 1 (Homo sapiens) (UniProt Q9UHC9).
T1 sequence (whole entry): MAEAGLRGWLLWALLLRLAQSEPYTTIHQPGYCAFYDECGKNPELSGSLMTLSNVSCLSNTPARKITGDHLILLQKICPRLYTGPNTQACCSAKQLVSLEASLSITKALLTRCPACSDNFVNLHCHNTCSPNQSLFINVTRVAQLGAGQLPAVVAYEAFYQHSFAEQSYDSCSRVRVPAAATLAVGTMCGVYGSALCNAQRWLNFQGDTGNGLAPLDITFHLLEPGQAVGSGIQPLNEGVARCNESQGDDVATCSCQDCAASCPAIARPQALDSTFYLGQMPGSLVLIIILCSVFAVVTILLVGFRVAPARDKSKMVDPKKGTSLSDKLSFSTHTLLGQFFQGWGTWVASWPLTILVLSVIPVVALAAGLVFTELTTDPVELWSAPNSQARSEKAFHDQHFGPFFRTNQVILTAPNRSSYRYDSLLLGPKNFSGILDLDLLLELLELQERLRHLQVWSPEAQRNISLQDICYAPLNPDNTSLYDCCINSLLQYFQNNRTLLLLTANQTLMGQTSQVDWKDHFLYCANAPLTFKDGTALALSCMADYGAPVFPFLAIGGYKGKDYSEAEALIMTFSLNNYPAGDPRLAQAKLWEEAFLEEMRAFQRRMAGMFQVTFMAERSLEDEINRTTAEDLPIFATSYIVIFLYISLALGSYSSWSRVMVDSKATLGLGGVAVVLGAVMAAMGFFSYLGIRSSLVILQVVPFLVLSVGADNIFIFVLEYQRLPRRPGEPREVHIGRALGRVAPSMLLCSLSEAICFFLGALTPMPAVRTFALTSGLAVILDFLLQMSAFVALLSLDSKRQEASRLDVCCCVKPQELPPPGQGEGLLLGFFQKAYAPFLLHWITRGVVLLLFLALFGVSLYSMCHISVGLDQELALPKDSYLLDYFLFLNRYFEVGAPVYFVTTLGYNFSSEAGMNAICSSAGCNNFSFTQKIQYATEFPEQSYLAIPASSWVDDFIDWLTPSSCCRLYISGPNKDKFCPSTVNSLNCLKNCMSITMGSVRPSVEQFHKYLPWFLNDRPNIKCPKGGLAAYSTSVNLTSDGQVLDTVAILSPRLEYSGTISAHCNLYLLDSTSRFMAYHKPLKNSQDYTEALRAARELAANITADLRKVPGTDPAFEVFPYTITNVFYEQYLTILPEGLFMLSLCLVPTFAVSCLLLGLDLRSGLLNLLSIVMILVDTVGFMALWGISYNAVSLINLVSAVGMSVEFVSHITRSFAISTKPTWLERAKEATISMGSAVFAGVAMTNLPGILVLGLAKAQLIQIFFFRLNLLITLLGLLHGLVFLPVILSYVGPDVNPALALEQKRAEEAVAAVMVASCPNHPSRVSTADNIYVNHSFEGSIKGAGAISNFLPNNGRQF
Briefly: Inhibition of niemann pick C1-like protein-1 in human Caco-2 cells assessed as cholesterol uptake at 100 uM after 24 hrs by HPLC analysis. The format is cell-based.

Data set [2] can be described thus: Cytotoxicity against human HEK293 cells assessed as cell viability after 48 hrs by MTT assay. The data set is classed as cell-based. As to conditions: read-out: LC50. A general note: Formazan colour is commonly taken as a measure of viable cells.
The nature of data set [3]: Octanol-water partition coefficient, logP of the compound by HPLC analysis. The data set is classed as physicochemical.
The nature of data set [4]: Cytotoxicity against human GES-1 cells assessed as cell viability after 48 hrs by MTT assay. The data set is classed as cell-based, GES1. As to conditions: read-out: LC50.
The test system of data set [5] is Hamster. Nature of the data set: Decrease in triglyceride level in serum of cholesterol fed hamster model at 50 mg/kg/day, po administered for 7 days measured on day 7 post last dose. The data set is classed as functional, Cricetinae. More on the design: scale not given: the % may be the effect or the level left.
The subject of data set [6] is Hamster. Nature of the data set: Increase in proportion of high density lipoprotein cholesterol to total cholesterol in serum of cholesterol fed hamster at 50 mg/kg/day, po administered for 7 days measured on day 7 post last dose. The data set is classed as functional, Cricetinae.
The subject of data set [7] is Hamster. Nature of the data set: Toxicity in cholesterol fed hamster model assessed as decrease in body weight at 50 mg/kg/day, po administered for 7 days measured for 3 days during compound dosing. The following applies: cricetinae, in vivo, 72 h. The data set is classed as organism-based.
Data set [8] relates to Hamster. Nature of the data set: Decrease in low density lipoprotein cholesterol level in serum of cholesterol fed hamster model at 50 mg/kg/day, po administered for 7 days measured on day 7 post last dose. The format is functional, Cricetinae. Further details: scale not given: the % may be the effect or the level left.
The subject of data set [9] is Hamster. Briefly: Decrease in total cholesterol level in serum of cholesterol fed hamster model at 50 mg/kg/day, po administered for 7 days measured on day 7 post last dose. The data set is classed as functional, Cricetinae. More on the design: scale not given: the % may be the effect or the level left.
Data set [10] relates to Hamster. Nature of the data set: Decrease in free fatty acid level in serum of cholesterol fed hamster model at 50 mg/kg/day, po administered for 7 days measured on day 7 post last dose. The format is functional, Cricetinae. Further details: scale not given: the % may be the effect or the level left.
Data set [11] relates to Hamster. Briefly: Effect on total cholesterol level in cholesterol fed hamster liver at 50 mg/kg/day, po administered for 7 days measured on day 7 post last dose. The data set is classed as ADME, organism-based. As to conditions: cricetinae, in vivo, 168 h.
Data set [12] has as its system Hamster. Briefly: Effect on triglyceride level in cholesterol fed hamster liver at 50 mg/kg/day, po administered for 7 days measured on day 7 post last dose. The format is ADME, organism-based. As to conditions: cricetinae, in vivo, 168 h.
In data set [13] the test system is Hamster. Nature of the data set: Toxicity in cholesterol fed hamster model assessed as change in body weight at 50 mg/kg/day, po administered for 7 days measured during compound dosing. The format is organism-based. As to conditions: cricetinae, in vivo, 168 h.
The test system of data set [14] is Hamster. Nature of the data set: Increase in nitric oxide level in serum of cholesterol fed hamster at 50 mg/kg/day, po administered for 7 days measured on day 7 post last dose. The data set is classed as functional, organism-based. As to conditions: Cricetinae.
Data set [15] relates to Hamster. Briefly: Increase in nitric oxide synthase level in serum of cholesterol fed hamster at 50 mg/kg/day, po administered for 7 days measured on day 7 post last dose. The data set is classed as functional, organism-based. As to conditions: Cricetinae.

The source made the active and inactive calls. The calls are words filed in the database; no cut-off is given here. Where only a bound is given, the exact number is not on record here.

One may read the inhibition as the change of the read-out against control, counted positive when it falls. By logP is commonly meant a log measure of how a compound divides between an organic and an aqueous phase.

For the compound `O=C1C(c2ccc(O)cc2)=C(c2ccc(F)cc2)C(=O)N1CCCCNS(=O)(=O)c1ccc(C(F)(F)F)cc1`, the inhibition entry in data set [1] was “Active”.

On to `CCc1ccc(S(=O)(=O)NCCC[C@H]2C(=O)N(c3ccc(C)cc3)[C@@H]2c2ccc([N+](=O)[O-])cc2)cc1`, for which the inhibition entry in data set [1] is “Active”. Besides, the CC50 at 48 h in data set [2] and in [4] was over 100 µM throughout. Also, the logP in data set [3] is at least 4.4.

`O=C1C(c2ccc(O)cc2)=C(c2ccc(F)cc2)C(=O)N1CCCCNS(=O)(=O)c1ccc(OC(F)(F)F)cc1`: the inhibition result in data set [1] was “Active”.

With `Cc1ccc(N2C(=O)[C@H](CCCNS(=O)(=O)c3cccs3)[C@H]2c2ccc([N+](=O)[O-])cc2)cc1`, in data set [1], the inhibition entry was “Active”.

For `Cc1ccc(N2C(=O)[C@H](CCCNS(=O)(=O)c3ccc(OC(F)(F)F)cc3)[C@H]2c2ccc([N+](=O)[O-])cc2)cc1`, in data set [1], the inhibition is 47.9%. Besides, the CC50 at 48 h in data set [2] was over 100 µM; in data set [4], 56.8 µM. This compound also displayed a logP in [3] of at least 4.4.

For `CCc1ccc(S(=O)(=O)NCCC[C@H]2C(=O)N(c3ccc(C)cc3)[C@@H]2c2ccc(NS(=O)(=O)c3ccc(C)cc3)cc2)cc1`, the inhibition entry in data set [1] was “Active”. Moreover, the results for the CC50 at 48 h in data set [2] and in data set [4] were 42.9 µM and 92.9 µM, respectively. The logP in data set [3] came out at 3.4.

In the case of `O=C1[C@H](CC[C@H](O)c2ccc(F)cc2)[C@@H](c2ccc(O)cc2)N1c1ccc(F)cc1` [EZETIMIBE], the Activity is listed as 36% in the data set on Hamster [5]; 56% in the data set with Hamster [6]; “Toxic” in the data set with Hamster [7]; 24.8% in the data set on Hamster [8]; 30.2% in the data set with Hamster [9]; 29.5% with Hamster [10]. Also, the CC50 at 48 h is 54.6 µM in data set [2] and 61.3 µM in data set [4]. This compound showed a logP in data set [3] of 3.4.

Take `Cc1ccc(N2C(=O)[C@H](CCCNS(=O)(=O)c3ccc(OC(F)(F)F)cc3)[C@H]2c2ccc(NS(=O)(=O)c3ccc(C)cc3)cc2)cc1`: the inhibition entry in [1] is “Active”. In addition, the CC50 at 48 h in data set [2] and in [4] was over 100 µM throughout. The same compound returned a logP in data set [3] of 3.4.

For `CCc1ccc(S(=O)(=O)NCCC[C@H]2C(=O)N(c3ccc(C)cc3)[C@@H]2c2ccc(NS(C)(=O)=O)cc2)cc1`, in [1], the inhibition result is “Active”. Also, the CC50 at 48 h in [2] and in data set [4] was over 100 µM throughout. In data set [3], the lipophilicity (logP) came out at 3.4.

For `Cc1ccc(N2C(=O)[C@H](CCCNS(=O)(=O)c3ccc(OC(F)(F)F)cc3)[C@H]2c2ccc(NS(C)(=O)=O)cc2)cc1`, the Activity entry was “Non-toxic” in the data set with Hamster [11]; 25.3% in the data set with Hamster [5]; 42.9% in the data set on Hamster [6]; 17.8% in the data set with Hamster [8]; “Non-toxic” in the data set on Hamster [12]; “Non-toxic” in the data set on Hamster [13]. In addition, the Activity in the data set with Hamster [9] amounted to 25.7%; with Hamster [10] it was 21.4%. The inhibition in data set [1] turned out to be 41.4%. For the same compound, the CC50 at 48 h in data set [2] and in data set [4] was over 100 µM each time. Further, the result in the data set on Hamster [14] and with Hamster [15] was Active. In addition, the logP in [3] is 3.4.

For the origin of these results see ChEMBL document CHEMBL3758158, “Discovery of 2-azetidinone and 1H-pyrrole-2,5-dione derivatives containing sulfonamide group at the side chain as potential cholesterol absorption inhibitors” (Bioorg Med Chem Lett, 2016).
